From patent publication US7468391B2, “Methods for treating retinoid responsive disorders using selective inhibitors of CYP26A and CYP26B” (Allergan, Inc., priority 2003, dated 2008)

Key:
CYP26A (P450RAI-1) = target: T1, CYP26A (P450RAI-1) (Homo sapiens, UniProt O43174); assay: Cell-based inhibition of RA metabolism in CYP26A stably transfected HeLa cells; settings: stably transfected HeLa cells, [3H]-RA, 3 hours at 37° C.; read-out: P450RAI-1 Whole cell IC50
T1 construct: expressed in transfected cells; host or cells: HeLa
T1 sequence (O43174 1-497): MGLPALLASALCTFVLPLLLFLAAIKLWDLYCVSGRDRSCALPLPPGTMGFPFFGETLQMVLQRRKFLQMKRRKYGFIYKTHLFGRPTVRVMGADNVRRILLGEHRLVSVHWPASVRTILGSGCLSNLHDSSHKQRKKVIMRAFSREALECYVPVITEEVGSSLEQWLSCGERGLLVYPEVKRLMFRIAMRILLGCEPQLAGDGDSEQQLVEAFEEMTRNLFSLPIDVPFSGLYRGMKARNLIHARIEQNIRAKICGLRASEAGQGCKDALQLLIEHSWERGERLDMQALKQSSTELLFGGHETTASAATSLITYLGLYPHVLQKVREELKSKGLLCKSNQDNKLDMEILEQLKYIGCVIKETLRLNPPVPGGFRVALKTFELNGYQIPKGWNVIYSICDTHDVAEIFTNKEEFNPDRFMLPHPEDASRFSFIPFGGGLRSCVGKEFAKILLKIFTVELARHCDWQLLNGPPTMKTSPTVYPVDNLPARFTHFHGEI
Experimental: (§1) In brief, CYP26A or CYP26B can be stably transfected into HeLa cells. Exponentially growing cells are harvested by incubating in trypsin. Cells are then washed and plated in a 48-well plate at 5×10^5 cells in 0.2 ml MEM medium containing 10% FBS and 0.05 μCi [^3H]-RA in the presence or absence of increasing concentrations of the test compounds. The compounds are diluted in 100% DMSO and then added in triplicate wells at either 10, 1 or 0.1 μM final concentration. As a positive control for RA metabolism inhibition, cells are also incubated with ketoconazole at 100, 10 and 1 μM. Cells are incubated for 3 hours at 37 degrees C. The retinoids are then extracted using the procedure of Bligh et al., Canadian Journal of Biochemistry 37: 911-917 (1959), modified by using methylenechloride instead of chloroform. This publication by Bligh et al., is specifically incorporated herein by reference. The water soluble radioactivity is quantified using a β scintillation counter, and IC50 values are determined.
(§2) CYP26A and CYP26B stably transfected HeLa cells were maintained in 100 mm tissue culture dishes in MEM medium containing 10% FBS and 100 μg/ml hygromycin.
(§3) Exponentially growing cells were harvested by incubating in trypsin. Cells were then washed with 1×PBS and plated in a 48-well plate at 5×10^5 cells in 0.2 ml MEM medium containing 10% FBS and 0.05 μCi [^3H]-RA in the presence or absence of increasing concentrations of the test compounds. The compounds were diluted in 100% DMSO and then added to triplicate wells at final concentrations of 10, 1 or 0.1 μM. As a positive control for RA metabolism inhibition, cells were also incubated with ketoconazole at 100, 10 and 1 μM. Cells were incubated for 3 hours at 37° C. The retinoids were then extracted using a modified Bligh and Dyer procedure (Bligh and Dyer, supra (1959)), in which methylene-chloride, as opposed to chloroform, was used, and the aqueous soluble radioactivity quantified using a β-scintillation counter. ID50 values represent the concentration of inhibitor required to inhibit RA metabolism by 50 percent and were derived manually from log-transformed data.

CYP26B (P450RAI-2) = target: T2, CYP26B (P450RAI-2) (Homo sapiens, UniProt Q9NR63); assay: Cell-based inhibition of RA metabolism in CYP26B stably transfected HeLa cells; settings: stably transfected HeLa cells, [3H]-RA, 3 hours at 37° C.; read-out: P450RAI-2 Whole cell IC50
T2 construct: expressed in transfected cells; host or cells: HeLa
T2 sequence (Q9NR63 1-512): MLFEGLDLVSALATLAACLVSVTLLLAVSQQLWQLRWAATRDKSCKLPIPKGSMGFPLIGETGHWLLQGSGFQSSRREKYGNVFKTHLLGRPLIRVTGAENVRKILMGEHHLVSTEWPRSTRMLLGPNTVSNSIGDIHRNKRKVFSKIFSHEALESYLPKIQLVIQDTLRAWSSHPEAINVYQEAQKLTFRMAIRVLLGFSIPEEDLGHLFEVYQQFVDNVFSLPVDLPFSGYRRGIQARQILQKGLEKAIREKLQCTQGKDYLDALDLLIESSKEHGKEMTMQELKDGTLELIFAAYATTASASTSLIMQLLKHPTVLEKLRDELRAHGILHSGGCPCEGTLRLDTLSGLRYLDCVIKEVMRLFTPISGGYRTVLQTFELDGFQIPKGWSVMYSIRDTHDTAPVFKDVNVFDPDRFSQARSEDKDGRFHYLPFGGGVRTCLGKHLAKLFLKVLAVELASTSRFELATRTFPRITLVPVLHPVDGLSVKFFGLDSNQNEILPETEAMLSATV
Experimental: as §1, §2, §3

RAR γ = target: T3, RAR γ (Homo sapiens, UniProt P13631); assay: RAR γ Kd; format: binding; settings: last item of cell EC50/(EFFICACY)/Kd
T3 sequence (P13631 1-454): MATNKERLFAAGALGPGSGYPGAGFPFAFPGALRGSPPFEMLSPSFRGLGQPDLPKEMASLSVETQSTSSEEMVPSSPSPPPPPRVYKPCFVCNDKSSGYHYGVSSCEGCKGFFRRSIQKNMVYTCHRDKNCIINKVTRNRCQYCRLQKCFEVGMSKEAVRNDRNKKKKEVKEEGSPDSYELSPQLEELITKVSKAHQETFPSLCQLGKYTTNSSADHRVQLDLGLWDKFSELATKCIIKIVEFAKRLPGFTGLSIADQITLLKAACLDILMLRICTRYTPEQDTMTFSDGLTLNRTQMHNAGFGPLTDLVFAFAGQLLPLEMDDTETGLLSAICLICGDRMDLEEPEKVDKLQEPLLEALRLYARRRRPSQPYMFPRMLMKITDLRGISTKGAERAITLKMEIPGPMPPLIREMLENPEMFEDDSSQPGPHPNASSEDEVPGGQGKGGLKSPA

RAR α = target: T4, RAR α (Homo sapiens, UniProt P10276); assay: RAR α Kd; format: binding; settings: last item of cell EC50/(EFFICACY)/Kd
T4 sequence (P10276 1-462): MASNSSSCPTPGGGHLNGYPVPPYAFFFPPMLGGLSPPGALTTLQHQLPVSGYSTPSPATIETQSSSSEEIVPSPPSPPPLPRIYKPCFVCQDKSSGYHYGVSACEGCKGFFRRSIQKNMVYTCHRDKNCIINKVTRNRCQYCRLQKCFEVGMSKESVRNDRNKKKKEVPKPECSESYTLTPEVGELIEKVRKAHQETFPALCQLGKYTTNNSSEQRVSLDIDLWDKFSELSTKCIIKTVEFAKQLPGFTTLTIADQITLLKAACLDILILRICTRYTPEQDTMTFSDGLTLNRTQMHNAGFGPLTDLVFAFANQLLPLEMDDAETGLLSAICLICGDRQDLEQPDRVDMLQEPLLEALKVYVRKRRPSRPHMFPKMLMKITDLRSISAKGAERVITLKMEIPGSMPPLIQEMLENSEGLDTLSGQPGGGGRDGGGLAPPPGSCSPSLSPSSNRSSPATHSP

RAR β [1] = target: T5, RAR β (Homo sapiens, UniProt P10826); assay: RAR β EC50/(efficacy); format: cell-based; settings: for RAR β (EFFICACY): value in brackets of cell EC50/(EFFICACY)/Kd
T5 sequence (P10826 1-455): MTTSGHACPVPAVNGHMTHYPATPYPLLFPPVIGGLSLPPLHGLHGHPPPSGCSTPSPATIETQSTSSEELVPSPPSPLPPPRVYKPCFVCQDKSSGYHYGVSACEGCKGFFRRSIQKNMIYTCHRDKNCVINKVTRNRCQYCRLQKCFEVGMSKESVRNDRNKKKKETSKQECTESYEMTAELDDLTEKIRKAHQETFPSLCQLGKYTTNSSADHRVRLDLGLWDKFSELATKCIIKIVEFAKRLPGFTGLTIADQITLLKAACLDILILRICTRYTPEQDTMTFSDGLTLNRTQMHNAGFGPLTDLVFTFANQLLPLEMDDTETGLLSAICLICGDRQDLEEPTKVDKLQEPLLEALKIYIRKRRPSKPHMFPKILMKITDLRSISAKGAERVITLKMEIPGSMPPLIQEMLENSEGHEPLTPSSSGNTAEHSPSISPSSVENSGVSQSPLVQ

RAR β [2] = target: T5, RAR β; assay: RAR β Kd; format: binding; settings: last item of cell EC50/(EFFICACY)/Kd

| SMILES | IC50 (CYP26A (P450RAI-1)) | IC50 (CYP26B (P450RAI-2)) | Kd (RAR γ) | Kd (RAR α) | EC50 (RAR β [1]; first item of cell EC50/(EFFICACY)/Kd) | RAR β (EFFICACY) (RAR β [1]) | Kd (RAR β [2]) |
| --- | --- | --- | --- | --- | --- | --- | --- |
| C#Cc1cc(NC(=O)Nc2ccc(C(=O)O)c(F)c2)cc2c1OC(C)(C)CC2(C)C [Compound 63, 4-[3-(8-Ethynyl-2,2,4,4-tetramethyl-chroman-6-yl)-ureido]-2-fluoro-benzoic acid] | > 10 µM | 0.68 µM | > 100 µM | > 100 µM | 0.853 µM | 37 | 11 µM |
| CN(C1CC1)C1CCC(C)(C)c2cc(C#Cc3ccc(C(C)(C)C(=O)O)cc3)ccc21 (centres unmarked) [Compound 52, 2-{4-[5-(Cyclopropyl-methyl-amino)-8,8-dimethyl-5,6,7,8-tetrahydro-naphthalen-2-ylethynyl]-phenyl}-2-methyl-propionic acid] | 0.4 µM | > 10 µM | > 10 µM | > 10 µM | – | < 5 | > 10 µM |
| Cc1ccc(CN(C)C2CC2)cc1C#Cc1ccc(/C=C/C(=O)O)cc1 [Compound 34, (E)-3-(4-{5-[(Cyclopropyl-methyl-amino)-methyl]-2-methyl-phenylethynyl}-phenyl)-acrylic acid] | > 10 µM | 0.12 µM | 8.53 µM | 5.65 µM | – | 20 | 3.49 µM |
| COc1cc(C#Cc2ccc(/C=C/C(=O)O)cc2)cc2c1C(N(C)C1CC1)CCC2(C)C (centres unmarked) [Compound 29, (E)-3-{4-[5-(Cyclopropyl-methyl-amino)-4-methoxy-8,8-dimethyl-5,6,7,8-tetrahydro-naphthalen-2-ylethynyl]-phenyl}-acrylic acid] | 0.6 µM | > 10 µM | > 10 µM | > 10 µM | – | – | > 10 µM |
| COc1cc(C#Cc2ccc(CC(=O)O)cc2)cc2c1C(N(C)C1CC1)CCC2(C)C (centres unmarked) [Compound 25, {4-[5-(Cyclopropyl-methyl-amino)-4-methoxy-8,8-dimethyl-5,6,7,8-tetrahydro-naphthalen-2-ylethynyl]-phenyl}-acetic acid] | 0.1 µM | > 10 µM | 0.317 µM | > 10 µM | – | – | > 10 µM |
| CC(C)c1cc(C#Cc2cccc(/C=C/C(=O)O)c2)cc2c1OC(C)(C)CC2(C)C [Compound 15, 3-[3-(8-Isopropyl-2,2,4,4-tetramethyl-chroman-6-ylethynyl)-phenyl]-acrylic acid] | 0.6 µM | > 10 µM | > 10 µM | 8.9 µM | – | – | > 10 µM |
| Cc1cc2c(cc1C#Cc1ccc(C(C)(C)C(=O)O)cc1)C(C)(C)CCC2N(C)C1CC1 (centres unmarked) [Compound 53, 2-{4-[5-(Cyclopropyl-methyl-amino)-3,8,8-trimethyl-5,6,7,8-tetrahydro-naphthalen-2-ylethynyl]-phenyl}-2-methyl-propionic acid] | 0.5 µM | 5 µM | > 10 µM | > 10 µM | – | – | 3.91 µM |

The remaining lines, values ahead:

| IC50 (CYP26A (P450RAI-1)) | IC50 (CYP26B (P450RAI-2)) | Kd (RAR γ) | Kd (RAR α) | EC50 (RAR β [1]; first item of cell EC50/(EFFICACY)/Kd) | RAR β (EFFICACY) (RAR β [1]) | Kd (RAR β [2]) | SMILES |
| --- | --- | --- | --- | --- | --- | --- | --- |
| 3.5 µM | > 10 µM | > 10 µM | > 10 µM | – | 25 | 4.61 µM | CCOC(=O)C1=C(C)CC(C)(C)c2cc(C#Cc3ccc(CC(=O)O)cc3)ccc21 [Compound 58, 6-(4-Carboxymethyl-phenylethynyl)-2,4,4-trimethyl-3,4-dihydro-naphthalene-1-carboxylic acid ethyl ester] |
| 0.018 µM | 5 µM | 1.12 µM | > 10 µM | – | 25 | > 10 µM | COc1cc(C#Cc2ccc(CC(=O)O)c(F)c2)cc2c1C(N(C)C1CC1)CCC2(C)C (centres unmarked) [Compound 26, {4-[5-(Cyclopropyl-methyl-amino)-4-methoxy-8,8-dimethyl-5,6,7,8-tetrahydro-naphthalen-2-ylethynyl]-2-fluoro-phenyl}-acetic acid] |
| 0.5 µM | – | > 10 µM | > 10 µM | – | 30 | > 10 µM | CCOC(=O)C1=CCC(C)(C)c2cc(C#Cc3ccc(CC(=O)O)c(F)c3)c(C)cc21 [Compound 56, 6-(4-Carboxymethyl-3-fluoro-phenylethynyl)-4,4,7-trimethyl-3,4-dihydro-naphthalene-1-carboxylic acid ethyl ester] |
| 0.007 µM | 0.2 µM | > 10 µM | > 10 µM | – | 15 | > 10 µM | C=Cc1cc(C#Cc2ccc(CC(=O)O)cc2)cc2c1C(=O)CCC2(C)C [Compound 22, [4-(8,8-Dimethyl-5-oxo-4-vinyl-5,6,7,8-tetrahydro-naphthalen-2-ylethynyl)-phenyl]-acetic acid] |
